Literature values as cited in US20030031676A1, “Conjugate compounds for treating atheroma and other diseases” (Pharmacyclics, Inc., priority 1999, published 2003).

Conditions: animal models

**Q.** With lutetium (III) texaphyrin as the substance, how does the radiation sensitization activity read?
**A.** Its radiation sensitization activity is “lack of radiation sensitization activity”.
